Source: PubChem BioAssay AID248 (DTP/NCI, 2004)
Values joined by “and” are separate entries in the source; they are usually repeats but may differ in a detail not shown here. Equal entries are not always repeated. Inconclusive results and toxic doses are left out. No stated cut-off is given here; in the data, active means T/C of 150% or more; inactive means T/C below 125%.

System: L1210 leukemia ip in BDF1 mice, survival T/C
Experiment: NCI In Vivo Anticancer Drug Screen. Data for tumor model L1210 Leukemia (intraperitoneal) in B6D2F1 (BDF1) mice
Conditions: endpoint: mean survival time, higher = longer survival
In short: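 Ratio derived from survival: compound-dosed mice over vehicle-dosed mice, all bearing a transplantable tumor.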

[1] = dose: 50.0 mg/kg/injection, schedule: Q01DX001 (ip), vehicle: saline with Tween-80
[2] = dose: 25.0 mg/kg/injection, schedule: Q04DX003 (ip), vehicle: saline
[3] = dose: 50.0 mg/kg/injection, schedule: Q04DX003 (ip), vehicle: saline
[4] = dose: 100.0 mg/kg/injection, schedule: Q04DX003 (ip), vehicle: saline
[5] = dose: 100.0 mg/kg/injection, schedule: Q01DX001 (ip), vehicle: Klucel (hydroxypropylcellulose) (HPC)
[6] = dose: 200.0 mg/kg/injection, schedule: Q01DX001 (ip), vehicle: Klucel (hydroxypropylcellulose) (HPC)
[7] = dose: 100.0 mg/kg/injection, schedule: Q04DX003 (ip), vehicle: Klucel (hydroxypropylcellulose) (HPC)
[8] = dose: 200.0 mg/kg/injection, schedule: Q04DX003 (ip), vehicle: Klucel (hydroxypropylcellulose) (HPC)
[9] = dose: 400.0 mg/kg/injection, schedule: Q04DX003 (ip), vehicle: Klucel (hydroxypropylcellulose) (HPC)
[10] = dose: 100.0 mg/kg/injection, schedule: Q01DX009 (ip), vehicle: saline with Tween-80
[11] = dose: 100.0 mg/kg/injection, schedule: Q04DX003 (ip), vehicle: saline with Tween-80
[12] = dose: 200.0 mg/kg/injection, schedule: Q01DX009 (ip), vehicle: saline with Tween-80
[13] = dose: 200.0 mg/kg/injection, schedule: Q04DX003 (ip), vehicle: saline with Tween-80
[14] = dose: 400.0 mg/kg/injection, schedule: Q04DX003 (ip), vehicle: saline with Tween-80
[15] = dose: 200.0 mg/kg/injection, schedule: Q01DX009 (ip), vehicle: Klucel (hydroxypropylcellulose) (HPC)
[16] = dose: 400.0 mg/kg/injection, schedule: Q01DX009 (ip), vehicle: Klucel (hydroxypropylcellulose) (HPC)
[17] = dose: 100.0 mg/kg/injection, schedule: Q04DX002 (ip), vehicle: Klucel (hydroxypropylcellulose) (HPC)
[18] = dose: 200.0 mg/kg/injection, schedule: Q04DX002 (ip), vehicle: Klucel (hydroxypropylcellulose) (HPC)
[19] = dose: 400.0 mg/kg/injection, schedule: Q04DX002 (ip), vehicle: Klucel (hydroxypropylcellulose) (HPC)
[20] = dose: 50.0 mg/kg/injection, schedule: Q01DX009 (ip), vehicle: saline with Tween-80
[21] = dose: 100.0 mg/kg/injection, schedule: Q01DX009 (ip), vehicle: Klucel (hydroxypropylcellulose) (HPC)
[22] = dose: 100.0 mg/kg/injection, schedule: Q04DX002 (ip), vehicle: saline

Measured: T/C

CCCCCCCOC(CN)C(Cl)(Cl)Cl (stereo not given)
inactive: dose: 12.5 mg/kg/injection, schedule: Q01DX001 (ip), vehicle: saline with Tween-80 104 % of control | dose: 12.5 mg/kg/injection, schedule: Q01DX009 (ip), vehicle: saline with Tween-80 100 % of control and 104 % of control | dose: 25.0 mg/kg/injection, schedule: Q01DX001 (ip), vehicle: saline with Tween-80 100 % of control | dose: 25.0 mg/kg/injection, schedule: Q01DX009 (ip), vehicle: saline with Tween-80 97 % of control and 91 % of control | dose: 25.0 mg/kg/injection, schedule: Q04DX002 (ip), vehicle: saline with Tween-80 103 % of control and 108 % of control | [1] 94 % of control | dose: 50.0 mg/kg/injection, schedule: Q04DX002 (ip), vehicle: saline with Tween-80 103 % of control and 105 % of control

OC1CCCC2CCC[N-]C12.OC1CCCC2CCC[N-]C12.[O]=[V][OH] (stereo not given)
inactive: dose: 24.0 mg/kg/injection, schedule: Q01DX015 (ip), vehicle: carboxymethylcellulose (CMC) 105 % of control | [2] 93 % of control | dose: 36.0 mg/kg/injection, schedule: Q01DX015 (ip), vehicle: carboxymethylcellulose (CMC) 105 % of control | dose: 50.0 mg/kg/injection, schedule: Q01DX001 (ip), vehicle: saline 100 % of control | [3] 93 % of control | dose: 54.0 mg/kg/injection, schedule: Q01DX015 (ip), vehicle: carboxymethylcellulose (CMC) 102 % of control | [4] 95 % of control

O=CC1c2ccccc2C(C=O)c2c1ccc1ccccc21 (stereo not given)
inactive: dose: 50.0 mg/kg/injection, schedule: Q01DX001 (ip), vehicle: Klucel (hydroxypropylcellulose) (HPC) 93 % of control | [5] 91 % of control | [6] 100 % of control

CC(=O)Nc1c(Cl)c(Cl)c2c(c1Cl)Cc1cc(Cl)c(Cl)cc1-2
inactive: dose: 50.0 mg/kg/injection, schedule: Q01DX009 (ip), vehicle: acetone 93 % of control | dose: 50.0 mg/kg/injection, schedule: Q04DX003 (ip), vehicle: acetone 94 % of control | dose: 100.0 mg/kg/injection, schedule: Q01DX009 (ip), vehicle: acetone 95 % of control | dose: 100.0 mg/kg/injection, schedule: Q04DX003 (ip), vehicle: acetone 93 % of control | dose: 200.0 mg/kg/injection, schedule: Q01DX009 (ip), vehicle: acetone 97 % of control | dose: 200.0 mg/kg/injection, schedule: Q04DX003 (ip), vehicle: acetone 93 % of control

Nc1cc(C(Cl)(Cl)Cl)nc(Cl)n1
inactive: [7] 105 % of control | [8] 94 % of control | [9] 94 % of control

CCOC(=O)CN(CC(=O)OCC)CC(O)C(Cl)(Cl)Cl (stereo not given)
inactive: [10] 106 % of control | [11] 96 % of control | [12] 93 % of control | [13] 101 % of control | dose: 400.0 mg/kg/injection, schedule: Q01DX009 (ip), vehicle: saline with Tween-80 104 % of control | [14] 98 % of control

Oc1nc(/N=C2/N=c3ccc(Cl)cc3=N2)[nH]c1O
inactive: [7] 98 % of control | [8] 106 % of control | [9] 98 % of control

COc1ccc(CC2Cc3cc(OC)c(OC)cc3C=N2)cc1OC (stereo not given)
inactive: dose: 100.0 mg/kg/injection, schedule: Q01DX009 (ip), vehicle: saline 100 % of control | [4] 98 % of control | dose: 200.0 mg/kg/injection, schedule: Q01DX009 (ip), vehicle: saline 100 % of control | dose: 200.0 mg/kg/injection, schedule: Q04DX003 (ip), vehicle: saline 93 % of control | dose: 400.0 mg/kg/injection, schedule: Q04DX003 (ip), vehicle: saline 91 % of control

COc1ccccc1NC(=O)Nc1c(C)cc(C)cc1C
inactive: [7] 95 % of control | [15] 90 % of control | [8] 88 % of control | [16] 95 % of control | [9] 91 % of control

O=C1c2ccccc2-c2ccc(N3C(=O)c4ccccc4C3=O)cc21
inactive: dose: 16.5 mg/kg/injection, schedule: Q01DX001 (ip), vehicle: saline with Tween-80 88 % of control | dose: 37.5 mg/kg/injection, schedule: Q01DX001 (ip), vehicle: saline with Tween-80 92 % of control | [1] 95 % of control | dose: 100.0 mg/kg/injection, schedule: Q01DX001 (ip), vehicle: saline with Tween-80 91 % of control

Cc1ccc(Nc2cc(=O)[nH]c(N)n2)cc1Cl
inactive: dose: 100.0 mg/kg/injection, schedule: Q01DX Z (ip), vehicle: methylcellulose (MC) 86 % of control | dose: 200.0 mg/kg/injection, schedule: Q01DX Z (ip), vehicle: methylcellulose (MC) 103 % of control

CC(C)Cc1cc(C#N)cc(C(C)(C)C)c1O
inactive: [17] 100 % of control | [18] 100 % of control | [19] 103 % of control

OC1(c2ccccc2)c2ccccc2C(O)(c2ccccc2)c2cc(-c3ccccc3)c(-c3ccccc3)cc21 (stereo not given)
inactive: [17] 95 % of control | [18] 103 % of control | [19] 106 % of control

CN(C)C=Nc1ccc(C(=O)OCCN(C)C)cc1
inactive: [20] 115 % of control | [10] 97 % of control | [12] 106 % of control

CN(C)C(=O)Sc1ccc(Cl)cc1S(=O)(=O)F
inactive: [21] 97 % of control | [15] 100 % of control | [16] 89 % of control

COc1cccc(C23CCCCC2=NCC3)c1 (stereo not given)
inactive: [2] 100 % of control | [3] 107 % of control | [4] 89 % of control

CCOC(=O)C1C2=C(C(N)=O)C(=O)C(C(=O)O2)C1c1ccc(O)cc1 (stereo not given)
inactive: dose: 100.0 mg/kg/injection, schedule: Q01DX001 (ip), vehicle: other 91 % of control | dose: 200.0 mg/kg/injection, schedule: Q01DX001 (ip), vehicle: other 97 % of control

CCCCN=C(N)N=C(N)N
inactive: dose: 5.0 mg/kg/injection, schedule: Q01DX001 (ip), vehicle: saline 107 % of control | dose: 10.0 mg/kg/injection, schedule: Q01DX001 (ip), vehicle: saline 92 % of control | dose: 20.0 mg/kg/injection, schedule: Q01DX001 (ip), vehicle: saline 97 % of control | dose: 40.0 mg/kg/injection, schedule: Q01DX001 (ip), vehicle: saline 102 % of control | dose: 80.0 mg/kg/injection, schedule: Q01DX001 (ip), vehicle: saline 105 % of control | dose: 100.0 mg/kg/injection, schedule: Q01DX001 (ip), vehicle: saline 109 % of control

O=C(O)c1c(Br)c(Br)c(Br)c(Br)c1C(=O)O
inactive: [22] 107 % of control | dose: 200.0 mg/kg/injection, schedule: Q04DX002 (ip), vehicle: saline 110 % of control | dose: 400.0 mg/kg/injection, schedule: Q04DX002 (ip), vehicle: saline 103 % of control

CCCc1cnc(NCCCC(N)C(=O)O)nc1 (stereo not given)
inactive: dose: 25.0 mg/kg/injection, schedule: Q04DX002 (ip), vehicle: saline 95 % of control | dose: 50.0 mg/kg/injection, schedule: Q04DX002 (ip), vehicle: saline 95 % of control | [22] 89 % of control

O/N=C/CCCC/C=N/O
inactive: [20] 91 % of control | [10] 91 % of control | [12] 91 % of control

NC(N)=NCC1COc2ccccc2O1 (stereo not given)
inactive: dose: 25.0 mg/kg/injection, schedule: Q01DX001 (ip), vehicle: carboxymethylcellulose (CMC) 103 % of control | dose: 50.0 mg/kg/injection, schedule: Q01DX001 (ip), vehicle: carboxymethylcellulose (CMC) 106 % of control | dose: 100.0 mg/kg/injection, schedule: Q01DX001 (ip), vehicle: carboxymethylcellulose (CMC) 108 % of control

O=C(OCCCl)c1ccc([N+](=O)[O-])cc1
inactive: [11] 95 % of control | [13] 95 % of control | [14] 102 % of control

O=C(c1ccc(Cl)cc1)c1nonc1C(=O)c1ccc(Cl)cc1
inactive: [5] 100 % of control | [21] 98 % of control | [6] 96 % of control | [15] 95 % of control | dose: 400.0 mg/kg/injection, schedule: Q01DX001 (ip), vehicle: Klucel (hydroxypropylcellulose) (HPC) 100 % of control | [16] 106 % of control
